ChEMBL document CHEMBL1201862, “PubChem BioAssay data set” (2004)
The source made the active and inactive calls.

Tests used:
[1] = biological target: T1, Aryl hydrocarbon receptor (Homo sapiens, UniProt P35869); test: Luminescence-based cell-based high throughput dose response assay for activators of the Aryl Hydrocarbon Receptor (AHR). [Related pubchem assays: 2796 (Primary screen (AHR activators in singlicate)), 2845 (Confirmation screen (AHR activators in triplicate)), 434939 (Counterscreen (PXR activators in triplicate)), 2804 (Summary (AHR activators))]; assay type: ADME
T1 sequence (P35869 whole entry): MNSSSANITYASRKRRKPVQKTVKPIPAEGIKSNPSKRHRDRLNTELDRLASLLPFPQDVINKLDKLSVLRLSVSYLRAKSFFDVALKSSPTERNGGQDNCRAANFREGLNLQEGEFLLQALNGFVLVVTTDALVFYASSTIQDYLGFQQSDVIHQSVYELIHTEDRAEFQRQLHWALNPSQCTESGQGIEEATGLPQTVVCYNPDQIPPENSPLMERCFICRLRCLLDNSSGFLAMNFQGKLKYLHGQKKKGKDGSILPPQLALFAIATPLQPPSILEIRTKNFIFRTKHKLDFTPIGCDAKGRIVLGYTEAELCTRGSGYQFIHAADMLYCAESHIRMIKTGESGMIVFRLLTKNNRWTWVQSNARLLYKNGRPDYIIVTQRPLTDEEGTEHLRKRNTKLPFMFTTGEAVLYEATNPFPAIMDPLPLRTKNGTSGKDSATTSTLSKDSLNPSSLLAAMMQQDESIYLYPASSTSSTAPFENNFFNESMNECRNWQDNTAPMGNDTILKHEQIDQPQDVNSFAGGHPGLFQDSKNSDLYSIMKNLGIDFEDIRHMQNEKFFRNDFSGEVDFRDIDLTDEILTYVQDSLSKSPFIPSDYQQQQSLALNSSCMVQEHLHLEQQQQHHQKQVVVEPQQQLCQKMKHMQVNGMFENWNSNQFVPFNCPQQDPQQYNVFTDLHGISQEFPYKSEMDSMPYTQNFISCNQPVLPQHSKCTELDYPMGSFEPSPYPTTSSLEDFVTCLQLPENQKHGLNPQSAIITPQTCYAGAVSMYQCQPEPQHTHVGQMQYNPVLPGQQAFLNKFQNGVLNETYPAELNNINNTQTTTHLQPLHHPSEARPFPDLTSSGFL

[2] = biological target: FAD-linked sulfhydryl oxidase ALR (Homo sapiens, UniProt P55789); test: ALR-catalysed DTT oxidation blockers – biochemical, H2O2 detection, luminescence, cherry-pick, dose response (AID 493248)
Aspartyl aminopeptidase = biological target: T2, Aspartyl aminopeptidase (Plasmodium falciparum 3D7, UniProt Q8I2J3); test: Counterscreen for inhibitors of M1 and M17 aminopeptidases: QFRET-based biochemical high throughput dose response assay for inhibitors of the Plasmodium falciparum M18 Aspartyl Aminopeptidase (PFM18AAP). [Related PubChem assays: 1619 (Screening assay (M17LAP inhibitors).), 1445 (Screening assay (M1AAP inhibitors).)]
T2 sequence (Q8I2J3 whole entry): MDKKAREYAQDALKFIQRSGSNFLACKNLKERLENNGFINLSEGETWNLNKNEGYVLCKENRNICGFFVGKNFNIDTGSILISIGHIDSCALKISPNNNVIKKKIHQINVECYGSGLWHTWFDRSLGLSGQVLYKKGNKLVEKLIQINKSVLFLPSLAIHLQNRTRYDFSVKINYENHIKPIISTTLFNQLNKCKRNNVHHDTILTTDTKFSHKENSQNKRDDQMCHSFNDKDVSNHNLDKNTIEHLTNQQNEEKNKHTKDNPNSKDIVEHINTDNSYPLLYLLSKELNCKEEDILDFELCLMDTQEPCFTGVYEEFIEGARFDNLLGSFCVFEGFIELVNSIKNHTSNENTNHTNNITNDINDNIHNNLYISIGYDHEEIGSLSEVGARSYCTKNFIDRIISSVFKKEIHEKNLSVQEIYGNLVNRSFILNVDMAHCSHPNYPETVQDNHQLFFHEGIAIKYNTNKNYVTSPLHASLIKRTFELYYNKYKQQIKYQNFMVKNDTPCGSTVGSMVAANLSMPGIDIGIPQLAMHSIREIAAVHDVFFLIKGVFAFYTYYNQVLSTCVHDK

Aminopeptidase N = biological target: T3, Aminopeptidase N (Plasmodium falciparum FcB1/Columbia, UniProt O96935); test: malaria alanyl aminopeptidase activity blockers – biochemical, fluorogenic H-Leu-NHMec substrate, 1536-well (AID 1445); parameters: species or system Plasmodium falciparum 3D7, 3D7
T3 sequence (O96935 whole entry): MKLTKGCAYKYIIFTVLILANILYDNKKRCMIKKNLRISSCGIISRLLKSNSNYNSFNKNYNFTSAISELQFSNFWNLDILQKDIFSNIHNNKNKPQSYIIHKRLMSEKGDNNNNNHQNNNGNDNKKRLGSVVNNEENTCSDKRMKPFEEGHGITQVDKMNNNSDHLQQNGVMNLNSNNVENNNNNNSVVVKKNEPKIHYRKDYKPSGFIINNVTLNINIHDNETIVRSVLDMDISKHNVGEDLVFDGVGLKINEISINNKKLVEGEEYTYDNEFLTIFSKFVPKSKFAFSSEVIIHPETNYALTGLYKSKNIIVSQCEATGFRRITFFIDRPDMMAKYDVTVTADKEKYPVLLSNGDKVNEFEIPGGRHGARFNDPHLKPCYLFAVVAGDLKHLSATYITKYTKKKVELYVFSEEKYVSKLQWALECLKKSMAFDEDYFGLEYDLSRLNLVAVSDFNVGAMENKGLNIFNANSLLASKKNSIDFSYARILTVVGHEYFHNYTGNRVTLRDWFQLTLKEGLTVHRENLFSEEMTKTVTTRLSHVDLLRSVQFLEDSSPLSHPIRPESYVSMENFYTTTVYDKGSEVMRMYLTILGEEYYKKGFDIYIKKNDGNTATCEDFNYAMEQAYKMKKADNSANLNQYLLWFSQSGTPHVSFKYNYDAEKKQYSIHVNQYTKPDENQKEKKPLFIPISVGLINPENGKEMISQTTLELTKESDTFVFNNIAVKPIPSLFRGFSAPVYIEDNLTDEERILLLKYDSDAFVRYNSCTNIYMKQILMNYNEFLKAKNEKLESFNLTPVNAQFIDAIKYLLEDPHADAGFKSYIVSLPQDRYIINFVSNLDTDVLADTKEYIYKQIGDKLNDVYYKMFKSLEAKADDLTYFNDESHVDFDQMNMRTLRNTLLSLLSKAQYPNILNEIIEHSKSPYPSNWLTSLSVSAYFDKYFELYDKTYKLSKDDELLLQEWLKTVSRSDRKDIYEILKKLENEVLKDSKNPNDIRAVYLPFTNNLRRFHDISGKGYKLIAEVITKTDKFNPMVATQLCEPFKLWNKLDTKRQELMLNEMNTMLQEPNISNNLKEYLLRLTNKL

Procathepsin L = Procathepsin L (Homo sapiens, UniProt P07711); test: CTSL1 protease inhibition – biochemical, QFRET, 1536-well, counter-screen for M1/M17 aminopeptidase inhibitor project, dose response (AID 2214)
Bcl-2-related protein A1 = biological target: T4, Bcl-2-related protein A1 (Mus musculus, UniProt Q07440); assay type: functional;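 note: confirmatory dose–response counterscreen on Bfl-1, used to check hits from a UBC13 polyubiquitin inhibitor campaign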
T4 sequence (Q07440 whole entry): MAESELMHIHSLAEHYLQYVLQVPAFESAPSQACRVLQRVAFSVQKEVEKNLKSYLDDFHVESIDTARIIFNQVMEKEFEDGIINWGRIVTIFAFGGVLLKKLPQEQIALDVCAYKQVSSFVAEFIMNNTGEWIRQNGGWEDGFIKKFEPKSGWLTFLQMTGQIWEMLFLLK

[3] = biological target: T5, Ubiquitin-conjugating enzyme E2 N (Homo sapiens, UniProt P61088); assay type: functional
T5 sequence (P61088 whole entry): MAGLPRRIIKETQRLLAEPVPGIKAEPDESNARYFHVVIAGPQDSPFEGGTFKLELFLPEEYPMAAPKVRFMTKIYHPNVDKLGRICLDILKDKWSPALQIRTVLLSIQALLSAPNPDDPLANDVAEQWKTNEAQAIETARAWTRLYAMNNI

[4] = biological target: T5, Ubiquitin-conjugating enzyme E2 N; assay type: functional; remark: listed apart in the source
[5] = biological target: Mitogen-activated protein kinase 10 (Homo sapiens, UniProt P53779); test: Dose response biochemical screening assay for inhibitors of c-Jun N-Terminal Kinase 3 (JNK3). [Related pubchem assays: 746 ]
[6] = biological target: Serine/threonine-protein phosphatase PP1-alpha catalytic subunit (Homo sapiens, UniProt P62136); test: inhibition of protein phosphatase 1 activity – biochemical, fluorescence, dose response (AID 2394)
[7] = biological target: T6, Serine/threonine-protein phosphatase (Homo sapiens, UniProt Q9BPW0); test: inhibition of protein phosphatase 5 activity – biochemical, fluorescence, dose response (AID 2395)
T6 sequence (Q9BPW0 whole entry): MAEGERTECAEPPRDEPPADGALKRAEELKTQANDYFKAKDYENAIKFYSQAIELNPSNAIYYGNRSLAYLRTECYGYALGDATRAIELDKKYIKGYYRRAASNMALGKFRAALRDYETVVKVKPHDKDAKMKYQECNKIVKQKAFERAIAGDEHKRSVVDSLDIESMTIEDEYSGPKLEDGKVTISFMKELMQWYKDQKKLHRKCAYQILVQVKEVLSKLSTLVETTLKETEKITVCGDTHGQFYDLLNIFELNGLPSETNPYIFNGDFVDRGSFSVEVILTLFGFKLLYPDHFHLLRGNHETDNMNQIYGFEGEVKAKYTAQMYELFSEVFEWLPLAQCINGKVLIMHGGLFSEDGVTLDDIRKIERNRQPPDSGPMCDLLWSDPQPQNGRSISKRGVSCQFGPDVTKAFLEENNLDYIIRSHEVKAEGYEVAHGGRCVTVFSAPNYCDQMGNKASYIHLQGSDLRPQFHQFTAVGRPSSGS

Sequence of FAD-linked sulfhydryl oxidase ALR (P55789 whole entry): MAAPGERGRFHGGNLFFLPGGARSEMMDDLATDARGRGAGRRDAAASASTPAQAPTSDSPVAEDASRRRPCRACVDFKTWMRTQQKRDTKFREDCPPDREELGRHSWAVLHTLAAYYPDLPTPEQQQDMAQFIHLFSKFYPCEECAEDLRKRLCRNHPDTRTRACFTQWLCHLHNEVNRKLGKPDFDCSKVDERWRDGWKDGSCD
Sequence of Mitogen-activated protein kinase 10 (P53779 whole entry): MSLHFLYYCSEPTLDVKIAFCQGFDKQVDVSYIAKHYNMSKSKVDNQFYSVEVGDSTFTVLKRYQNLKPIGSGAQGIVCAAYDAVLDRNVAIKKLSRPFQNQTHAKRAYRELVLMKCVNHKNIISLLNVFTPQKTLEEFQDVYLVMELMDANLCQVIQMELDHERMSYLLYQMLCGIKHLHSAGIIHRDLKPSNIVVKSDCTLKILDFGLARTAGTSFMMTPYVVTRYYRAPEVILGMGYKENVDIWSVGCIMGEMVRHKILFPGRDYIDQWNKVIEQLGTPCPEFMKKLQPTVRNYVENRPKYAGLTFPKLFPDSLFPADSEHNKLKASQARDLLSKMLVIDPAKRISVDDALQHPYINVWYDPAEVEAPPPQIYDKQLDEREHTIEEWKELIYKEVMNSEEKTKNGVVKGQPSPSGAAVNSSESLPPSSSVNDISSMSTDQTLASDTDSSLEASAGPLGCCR
Sequence of Procathepsin L (P07711 whole entry): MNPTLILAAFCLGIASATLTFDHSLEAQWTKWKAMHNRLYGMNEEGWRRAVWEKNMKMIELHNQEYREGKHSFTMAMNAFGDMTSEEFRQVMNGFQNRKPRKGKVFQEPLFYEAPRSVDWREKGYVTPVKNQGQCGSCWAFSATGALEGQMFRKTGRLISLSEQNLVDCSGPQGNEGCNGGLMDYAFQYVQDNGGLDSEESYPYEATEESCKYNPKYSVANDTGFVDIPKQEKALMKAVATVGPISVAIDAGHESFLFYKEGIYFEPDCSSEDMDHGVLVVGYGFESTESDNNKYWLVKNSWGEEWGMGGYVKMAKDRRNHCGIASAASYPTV
Sequence of Serine/threonine-protein phosphatase PP1-alpha catalytic subunit (P62136 whole entry): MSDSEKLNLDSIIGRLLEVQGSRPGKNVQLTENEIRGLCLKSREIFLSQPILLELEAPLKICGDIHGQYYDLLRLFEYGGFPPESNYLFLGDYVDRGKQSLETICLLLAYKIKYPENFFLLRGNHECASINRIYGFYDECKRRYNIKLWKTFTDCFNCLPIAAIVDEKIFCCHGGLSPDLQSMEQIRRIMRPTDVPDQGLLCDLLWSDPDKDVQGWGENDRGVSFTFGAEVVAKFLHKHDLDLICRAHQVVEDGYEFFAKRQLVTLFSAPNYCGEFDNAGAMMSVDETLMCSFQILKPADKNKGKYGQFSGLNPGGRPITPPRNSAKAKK

## COc1ccccc1C(=O)Nc1ccc(N2CCCCC2)cc1
[1]
  EC50: 2.91 µM (active)
[2]
  AC50: 13.4 µM (active)

## CC(=O)N1NC(=C2C(=O)N(C)C(=O)N(C)C2=O)CC1c1ccccc1 (stereo unspecified)
Aspartyl aminopeptidase
  IC50: > 73.5 µM (not active)
Aminopeptidase N
  IC50: 16 µM (active)
Procathepsin L
  IC50: > 59.6 µM (not active)
Bcl-2-related protein A1
  IC50: > 20 µM (inactive)
[3]
  IC50: 12.5 µM (active)
[4]
  IC50: 19.5 µM (active)

## c1ccc2nc3c(nc2c1)c1ccccc1n3CCN1CCOCC1
[5]
  IC50: > 93.1 µM (not active)

## COC(=O)CCC(=O)OC1(C)C(=O)C2=CN(CC(C)C)C(c3ccc(OC)cc3)=CC2=C(Br)C1=O (stereo unspecified)
[6]
  IC50: 28.3 µM (not active)
[7]
  IC50: 37.5 µM (not active)
